Key:
[1] = organism: Homo sapiens; experiment: Activation of human RNase L using [CY5]-r(C11-UUC7)- [BHQ2] as substrate assessed as cleavage of fluorescent substrate by measuring increase in fluorescence at 100 nM incubated for 30 mins by FRET assay relative to control; settings: filed as activator
[2] = organism: Homo sapiens; experiment: Activation of human RNase L assessed as reduction in Vmax using varying concentrations of [CY5]-r(C11-UUC7)- [BHQ2] as substrate incubated for 30 mins by FRET assay relative to control; set-up: scale not given: the % may be the effect or the level left; settings: filed as activator
[3] = Activation of human RNase L using [CY5]-r(C11-UUC7)- [BHQ2] as substrate assessed as cleavage of fluorescent substrate by measuring increase in fluorescence incubated for 30 mins by FRET assay

Row | Activity [1] [%] | Activity [2] [%] | EC50 [3] [nM] | SMILES
1 | > 75 | 33 | 33.8 | Nc1ncnc2c1ncn2[C@@H]1O[C@H](COP(=O)(O)O[C@@H]2[C@H](O)[C@@H](COP(=O)(O)O[C@@H]3[C@H](O)[C@@H](CSCP(=O)(O)O)O[C@H]3n3cnc4c(N)ncnc43)O[C@H]2n2cnc3c(N)ncnc32)[C@@H](O)[C@H]1O
2 | > 75 | 33 | 55.2 | Nc1ncnc2c1ncn2[C@@H]1O[C@H](COP(=O)(O)O[C@@H]2[C@H](O)[C@@H](COP(=O)(O)O[C@@H]3[C@H](O)[C@@H](COCC(O)P(=O)(O)O)O[C@H]3n3cnc4c(N)ncnc43)O[C@H]2n2cnc3c(N)ncnc32)[C@@H](O)[C@H]1O (stereo partly specified)
3 | > 75 |  | 20.9 | Nc1ncnc2c1ncn2[C@@H]1O[C@H](COP(=O)(O)O[C@@H]2[C@H](O)[C@@H](COP(=O)(O)O[C@@H]3[C@H](O)[C@@H](CNC(=O)P(=O)(O)O)O[C@H]3n3cnc4c(N)ncnc43)O[C@H]2n2cnc3c(N)ncnc32)[C@@H](O)[C@H]1O
4 | > 75 |  | 35.7 | C[C@]1(OCP(=O)(O)O)O[C@@H](n2cnc3c(N)ncnc32)[C@H](OP(=O)(O)OC[C@H]2O[C@@H](n3cnc4c(N)ncnc43)[C@H](OP(=O)(O)OC[C@H]3O[C@@H](n4cnc5c(N)ncnc54)[C@H](O)[C@@H]3O)[C@@H]2O)[C@@H]1O
5 | > 75 |  | 18.9 | Nc1ncnc2c1ncn2[C@@H]1O[C@H](COP(=O)(O)O[C@@H]2[C@H](O)[C@@H](COP(=O)(O)O[C@@H]3[C@H](O)[C@@H](OCP(=O)(O)O)O[C@H]3n3cnc4c(N)ncnc43)O[C@H]2n2cnc3c(N)ncnc32)[C@@H](O)[C@H]1O
6 | > 75 | 33 | 46.1 | Nc1ncnc2c1ncn2[C@@H]1O[C@H](COP(=O)(O)O[C@@H]2[C@H](O)[C@@H](COP(=O)(O)O[C@@H]3[C@H](O)[C@@H](COCP(=O)(O)O)O[C@H]3n3cnc4c(N)ncnc43)O[C@H]2n2cnc3c(N)ncnc32)[C@@H](O)[C@H]1O
7 |  |  | 15.3 | Nc1ncnc2c1ncn2[C@@H]1O[C@H](COP(=O)(O)O[C@@H]2[C@H](O)[C@@H](COP(=O)(O)O[C@@H]3[C@H](O)[C@@H](COP(=O)(O)O)O[C@H]3n3cnc4c(N)ncnc43)O[C@H]2n2cnc3c(N)ncnc32)[C@@H](O)[C@H]1O

Reference: ChEMBL document CHEMBL5131462, “5'-Phosphonate modified oligoadenylates as potent activators of human RNase L” (Bioorg Med Chem, 2022)
